Measured values taken from PubChem BioAssay AID651630 (Sanford-Burnham Center for Chemical Genomics, 2012).
The source made the active and inactive calls.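 Rule for the calls: active = lipid-stain IC50 at or below a set limit, with nuclear-stain toxicity IC50 at least five times higher; inactive = the rest.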

What was measured:
DAPI = assay: TAG lipid buildup inhibition with viability readout – cell-based, panel, Nile Red and DAPI fluorescence, H9c2, dose response (AID 651630); conditions: H9c2 cells, DAPI nuclear fluorescence (cytotoxicity counter-readout), oleic acid;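 note: cells exposed to compound overnight before fixation and staining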
TAG = assay: as above; conditions: H9c2 cells, Nile Red TAG fluorescence, oleic acid

SMILES	IC50 cytotoxicity (DAPI nuclear signal decrease) (DAPI; run 1)	IC50 cytotoxicity (DAPI nuclear signal decrease) (DAPI; run 2)	IC50 (TAG; mean of runs)	IC50 (TAG; run 1)	IC50 (TAG; run 2)	IC50 cytotoxicity (DAPI nuclear signal decrease) (DAPI; mean of runs)
N#CC(C#N)=c1ccc2c(c1)N1C(c3ccccc3)=CC(c3ccccc3)C3CCCCC31N=2 (stereo unspecified)	> 25 µM	> 25 µM	1.92 µM	1.59 µM	2.25 µM	
O=C(CSc1nc(Nc2ccccc2)nc(N2CCOCC2)n1)N1CCCC1	22.1 µM	> 25 µM	12.2 µM	11.7 µM	12.7 µM	
Cc1ccc(S(=O)(=O)NC2=C(N3CCN(c4ccccc4F)CC3)C(=O)c3ccccc3C2=O)cc1	> 25 µM	> 25 µM	8.82 µM	8.52 µM	9.11 µM	> 25 µM (inactive)
Cc1ccc(Cn2cc(/C=N/NC(=O)Cc3nnc(NC(=O)c4ccc(C)cc4)s3)c3ccccc32)cc1	13.1 µM	19 µM	> 25 µM (inactive)	> 25 µM	> 25 µM	16 µM (inactive)
O=C(CSc1cccc2cccnc12)Nc1ccc(S(=O)(=O)N2CCOCC2)cc1	> 25 µM	> 25 µM	> 25 µM (inactive)	> 25 µM	> 25 µM	> 25 µM (inactive)
CN(C)CCCn1c(=O)n(CCc2ccccc2)c(=O)c2c3c(sc21)CCCCC3	> 25 µM	16.2 µM	> 25 µM (inactive)	> 25 µM	> 25 µM	
COc1ccc(C#Cc2ccc3c(c2)O[C@@H](CN(C)C(=O)Nc2cccc(OC)c2)[C@H](C)CN([C@@H](C)CO)S3(=O)=O)cc1	> 25 µM	> 25 µM	8.47 µM	7.39 µM	9.55 µM	> 25 µM (inactive)
COc1ccc(C2c3cc4c(cc3OC(N3CCOCC3)C2C)OCO4)c(OC)c1 (stereo unspecified)	> 25 µM	> 25 µM	10.1 µM	6.4 µM	13.8 µM	> 25 µM (inactive)
CCc1ccc(-c2nc(C(N)=O)c3[nH]c(=O)n(-c4ccccc4OC)c3n2)cc1	> 25 µM	> 25 µM	2.73 µM	2.74 µM	2.71 µM	
CCCSc1ccc2nc(NC(=O)OC)[nH]c2c1	> 25 µM	> 25 µM	> 25 µM (inactive)	> 25 µM	> 25 µM	> 25 µM (inactive)
Cn1nnc2c[n+](CC(=O)c3ccc(Cl)cc3)cc(Br)c21	20.9 µM	22.1 µM	13.5 µM	13.9 µM	13.2 µM	21.5 µM (inactive)
CN(C)c1ncnc2c1ncn2C1OC(CO)C(O)C1O (stereo unspecified)	11 µM	14.5 µM	> 25 µM (inactive)	> 25 µM	> 25 µM	12.8 µM (inactive)
O=C(Nc1cccc2ncccc12)c1ccc(Cl)cc1	> 25 µM	> 25 µM	6.22 µM	6.27 µM	6.17 µM	> 25 µM (inactive)
COC(=O)C1=C(C)N(Cc2ccccc2)C(=NCc2ccccc2)N[C@H]1c1ccccc1	> 25 µM	18.2 µM	> 25 µM (inactive)	> 25 µM	> 25 µM	
Cc1occc1C(=O)NC(C)CCc1ccccc1 (stereo unspecified)	> 25 µM	> 25 µM	> 25 µM (inactive)	> 25 µM	> 25 µM	> 25 µM (inactive)
COc1ccc(-c2cc(NC=O)c3ncc(-c4ccc(OC)c(OC)c4)n3c2)cc1	> 25 µM	5.58 µM	13.2 µM	12.5 µM	13.9 µM	
CCN1CCN(Cc2ccc(NC(=O)c3cc(NC(=O)c4cc5cccc(OC)c5o4)cc(OC)c3)cc2C(F)(F)F)CC1	> 25 µM	> 25 µM	13.9 µM	12.7 µM	15.1 µM	> 25 µM (inactive)
